Measurements from patent publication US7696408B2, “Method to enhance Agrobacterium-mediated transformation of plants” (Regents of the University of Minnesota, priority 1999, dated 2010).
Where two headings read alike, the source gives them in different places.

Columns and labels:
[1] = test system: soybean cot-node explants; assay: GUS transient expression on soybean cot-node explants after 5-day co-cultivation with Agrobacterium (T-DNA delivery); type: cell-based, Glycine max; conditions: for infection after co-cultivation (experiment #9): 400 mg/l in co-cultivation media, MN0901, AGL1 and LBA4404
Description: For each seedling, the roots and the majority of the hypocotyl were removed approximately 3-5 mm below the cotyledonary node by cutting the hypocotyl with a scalpel (Hinchee et al., 1998). The two cotyledons were then separated by cutting vertically through the hypocotyl region resulting in two explants. The epicotyl was subsequently removed on both explants, including all primary leaves and shoot meristems, and both the axillary bud and cotyledonary node were wounded by cutting about 10 times with a scalpel blade perpendicular to the hypocotyl. After all explants in a set were wounded (about 50), they were placed in a 25×100 mm petri plate containing 50 ml co-culture suspension for 30 minutes or inoculated into the 25 ml co-cultivation/Agrobacterium suspension for 30 minutes. The explants were then cultured on an agar-solidified co-culture media (0.5%) either without the addition of a test agent (e.g., cysteine) in 15×100 mm petri plates on top a sterile Whatman®#1 filter paper; five explants per plate with adaxial side down. Five plates were stacked together and wrapped in Parafilm®M then incubated at either 22° C. or 25° C. for 5 days in the dark.
After 5 days, the explants were washed in a liquid shoot induction media (B5 salts, MSIII iron stock, 3% sucrose, 3 mM MES, and filter sterilized B5 vitamins, 1.67 mg/l BAP, 100 mg/l cefotaxime, and 500 mg/l ticarcillin; pH 5.6) to remove excess Agrobacterium. Seven to ten explants from each cysteine level were washed in liquid shoot induction medium and placed in GUS histochemical stain (Jefferson et al., 1987). These explants were scored for GUS transient expression. Five to ten explants from each group were imbedded into a single 25×100 mm petri plate with solid shoot induction media (0.8% agar and agent, e.g., 400 mg/l cysteine) containing PPT concentrations of 1.33 mg/l, 3.33 mg/l, or 5.0 mg/l for selection. The plates were then incubated in a growth chamber with a fluctuating temperature between 18° C.-30° C. under a 18 hours light/6 hours dark cycle at 90-150 μE/m^2s.
The level of infection was scored using the GUS gene as a phenotypic marker immediately after co-culture and again after 4 weeks in shoot induction media. As it can be difficult to score the explants after co-cultivation due to the variation among explants and, in some cases, a complete staining of the target tissues, 6 categories were formed to assess the success of infection: • 4) None=There were no GUS positive sectors on any of the explants; • 5) Very low=Not all explants have GUS positive sectors, however, some have discrete foci usually seen on the hypocotyl or cot-node region. • 6) Low=More than ¾ the explants have GUS positive sectors in discrete foci on the hypocotyl and the cot-node region, but the foci are not numerous (<20). • 7) Medium=More than ½ the explants have significant GUS positive sectors at the cot-node region and hypocotyl, some seen as long lines of cells or larger sectors. • 8) Good=More than ¾ the explants have significant staining at the hypocotyl, the entire cot-node region, and on the cotyledons. […] Almost all explants have regions that are completely GUS positive. To reduce bias, samples were chosen at random and the level of infection scored before noting the treatment conditions. Samples that were between two categories are marked accordingly; those samples that resembled one category more than another were marked with a capital “X” and the other with a lowercase “x”.
Wounded soybean cot-node explants prepared from the cultivar ‘Bert’ were co-cultivated with Agrobacterium on solid co-cultivation medium containing various levels of cysteine for 5 days.

[2] = test system: grape; conditions: Perl et al., 1996; cited from earlier work
[3] = test system: Japonica rice meristem cultures; conditions: individually or in combination; Enríguez-Obregón et al., 1999; cited from earlier work
[4] = test system: soybean cot-node explants; assay: GUS+ sectors, shoots and shoot primordia after 28 days (4 weeks) on shoot induction medium with PPT (stable transformation); type: cell-based, Glycine max; conditions: amended to solid co-cultivation media
Description: After 5 days, the explants were washed in a liquid shoot induction media (B5 salts, MSIII iron stock, 3% sucrose, 3 mM MES, and filter sterilized B5 vitamins, 1.67 mg/l BAP, 100 mg/l cefotaxime, and 500 mg/l ticarcillin; pH 5.6) to remove excess Agrobacterium. Seven to ten explants from each cysteine level were washed in liquid shoot induction medium and placed in GUS histochemical stain (Jefferson et al., 1987). These explants were scored for GUS transient expression. Five to ten explants from each group were imbedded into a single 25×100 mm petri plate with solid shoot induction media (0.8% agar and agent, e.g., 400 mg/l cysteine) containing PPT concentrations of 1.33 mg/l, 3.33 mg/l, or 5.0 mg/l for selection. The plates were then incubated in a growth chamber with a fluctuating temperature between 18° C.-30° C. under a 18 hours light/6 hours dark cycle at 90-150 μE/m^2s. The explants were removed from the chamber after 14 days and transferred to fresh shoot induction media containing herbicide selection. During the transfer, the hypocotyl was carefully removed from the developing shoot mass and imbedded into the media with the differentiating tissue flush with the media surface. The plates were placed back into the growth chamber for an additional 2 weeks. At the 4 week time point, explants without de novo shoot production were discarded. The cotyledons were then removed from the differentiating tissue by cutting at the base of the node and the callus trimmed before transferring into shoot elongation media containing MS salts (murashige and Skoog, 1962), MSIII iron stock, 3% sucrose, 3 mM MES, 0.8% agar, and filter sterilized B5 vitamins, 50 mg/l asparagine, 100 mg/l pyroglutamic acid, 1 mg/l zeatin riboside, 0.1 mg/l indole-acetic acid, 0.5 mg/l GA3, 100 mg/l cefotaxime, 500 mg/l ticarcillin, 1.3-5 mg/l PPT; pH 5.6). Also at this time, a percentage of the explants were sliced into about 10 sections and stained for both GUS positive sectors and GUS positive shoots. Every 2 weeks the explants were transferred into new shoot elongation media after removing dead plant tissue and the bottom of the explant cut to encourage shoot elongation of transformed shoots. For the 4 week data, the minimum number of transformation events was recorded. Those explants with a GUS positive sector in the differentiating tissue giving rise to shoots were recorded with the number of transformation events in bold and italicized (FIGS. 2-5). Shoot data was obtained by recording the number of fully formed shoots seen on an explant. […] To determine the effect of adding cysteine to the co-cultivation medium on stable transformation, co-cultured explants were cultured for 28 days on a shoot-inducing medium containing the herbicide, phosphinothricin (PPT). During the 28 day incubation, the explants usually form de novo callus and shoots in the cot-node region in a structure referred to as a callus/shoot pad (FIG. 9). The callus/shoot pads were sliced in approximately 5 mm sections, immersed into GUS histochemical stain, and scored for GUS^+ sectors throughout the callus/shoot pad. […] The formation of transgenic shoot primordia and sectors extending into developing shoot tissues were also scored on 28 day sections of explants co-cultivated on 0 and 400 mg/l cysteine (FIG. 10A). Only those GUS^+ shoot primordia with obvious trichomes, which are characteristic to leaf tissue, or GUS^+ sectors originating and extending into the tissue at the base of developing shoots (referred to hereafter as differentiating tissue) were scored (FIG. 1A2).

[5] = Bert, LBA4404 pTOK233, agent in solid co-cultivation media, concentrations of Table 1, 5-day incubation
[6] = agent added to co-cultivation medium

O[C@H](CS)[C@H](O)CS (racemic) [DTT, dithiothreitol]
GUS+ staining after co-cultivation [1, 5]: increases
Agrobacterium-mediated T-DNA transfer/delivery into cot-node cells [1, 6]: increased
Agrobacterium-mediated T-DNA transfer/delivery into cot-node cells ([1]; agent added to co-cultivation medium, listed as dithiothreitol): Increases
plant viability after Agrobacterium-mediated transformation of grape [2]: increase plant viability

O=C1O[C@H]([C@@H](O)CO)C(O)=C1O [Ascorbic acid]
damage and viability of Japonica rice meristem cultures [3]: decreased damage and increased viability

Cc1cc(-c2ccc(S(=O)(=O)O)cc2)c2ccc3c(-c4ccc(S(=O)(=O)O)cc4)cc(C)nc3c2n1 [Bathocuproine disulfonic acid]
GUS+ staining after co-cultivation [1, 5]: increases
Agrobacterium-mediated T-DNA transfer/delivery into cot-node cells [1, 6]: Increases
GUS+ staining with metal chelator ([1]; range from added chelator to added copper or iron): significantly increased

O=S(=O)(O)c1ccc(-c2ccnc3c2ccc2c(-c4ccc(S(=O)(=O)O)cc4)ccnc23)cc1 [Bathophenanthroline disulfonic acid]
GUS+ staining after co-cultivation [1, 5]: increases
Agrobacterium-mediated T-DNA transfer/delivery into cot-node cells [1, 6]: Increases

N[C@H](CS)C(=O)O [D-cysteine]
Agrobacterium-mediated T-DNA transfer/delivery into cot-node cells [1, 6]: Increases
GUS+ foci at the 5-day interval ([1]; amended to solid co-cultivation media): increase
GUS+ foci at the 28-day interval [4]: increase

N[C@@H](CCC(=O)N[C@@H](CS)C(=O)NCC(=O)O)C(=O)O [Glutathione]
infection after co-cultivation (experiment #9) [1]: did not result in an increase in infection
GUS+ staining after co-cultivation [1, 5]: increases
Agrobacterium-mediated T-DNA transfer/delivery into cot-node cells [1, 6]: Increases

N[C@@H](CSSC[C@H](N)C(=O)O)C(=O)O [L-cystine]
Agrobacterium-mediated T-DNA transfer/delivery into cot-node cells [1, 6]: Increases

CSCC[C@H](N)C(=O)O [Methionine]
infection after co-cultivation (experiment #9) [1]: did not result in an increase in infection

O=S([O-])([O-])=S.[Na+].[Na+] [Na-thiosulfate, sodium thiosulfate]
Agrobacterium-mediated T-DNA transfer/delivery into cot-node cells [1]: Increases
GUS+ staining after co-cultivation [1]: increases

O=[N+]([O-])[O-].[Ag+] [silver nitrate]
damage and viability of Japonica rice meristem cultures [3]: decreased damage and increased viability
